This is an account of results in patent US10344060B2 (priority 2013, dated 2019).

Like-named read-outs stand apart in the source and are kept apart here. A value given as a limit tells only on which side of the number the result lay.

Holding throughout (assay): cell-based
Assay [1] has as its target hNav1.7 (Homo sapiens, UniProt Q15858). Particulars: read-out: IC50 (μM) Nav1.7.
Assay [2] addresses hNav1.5 (Homo sapiens, UniProt Q14524). Particulars: IonWorks Quattro, read-out: IC50 (μM) Nav1.5. Background: Patch clamp records ionic current or voltage across a cell membrane.
For assay [3], the target named is hNav1.4 (Homo sapiens, UniProt P35499). The format is cell-based. To be noted: for IC50: IonWorks Quattro, read-out: IC50 (μM) Nav1.4; for Nav1.4/Nav1.7: ratio of IonWorks Quattro IC50 values.
The target of assay [4] is hNav1.3 (Homo sapiens, UniProt Q9NY46). Particulars: IonWorks Quattro, read-out: IC50 (μM) Nav1.3.

Chain of hNav1.4 (P35499 whole entry): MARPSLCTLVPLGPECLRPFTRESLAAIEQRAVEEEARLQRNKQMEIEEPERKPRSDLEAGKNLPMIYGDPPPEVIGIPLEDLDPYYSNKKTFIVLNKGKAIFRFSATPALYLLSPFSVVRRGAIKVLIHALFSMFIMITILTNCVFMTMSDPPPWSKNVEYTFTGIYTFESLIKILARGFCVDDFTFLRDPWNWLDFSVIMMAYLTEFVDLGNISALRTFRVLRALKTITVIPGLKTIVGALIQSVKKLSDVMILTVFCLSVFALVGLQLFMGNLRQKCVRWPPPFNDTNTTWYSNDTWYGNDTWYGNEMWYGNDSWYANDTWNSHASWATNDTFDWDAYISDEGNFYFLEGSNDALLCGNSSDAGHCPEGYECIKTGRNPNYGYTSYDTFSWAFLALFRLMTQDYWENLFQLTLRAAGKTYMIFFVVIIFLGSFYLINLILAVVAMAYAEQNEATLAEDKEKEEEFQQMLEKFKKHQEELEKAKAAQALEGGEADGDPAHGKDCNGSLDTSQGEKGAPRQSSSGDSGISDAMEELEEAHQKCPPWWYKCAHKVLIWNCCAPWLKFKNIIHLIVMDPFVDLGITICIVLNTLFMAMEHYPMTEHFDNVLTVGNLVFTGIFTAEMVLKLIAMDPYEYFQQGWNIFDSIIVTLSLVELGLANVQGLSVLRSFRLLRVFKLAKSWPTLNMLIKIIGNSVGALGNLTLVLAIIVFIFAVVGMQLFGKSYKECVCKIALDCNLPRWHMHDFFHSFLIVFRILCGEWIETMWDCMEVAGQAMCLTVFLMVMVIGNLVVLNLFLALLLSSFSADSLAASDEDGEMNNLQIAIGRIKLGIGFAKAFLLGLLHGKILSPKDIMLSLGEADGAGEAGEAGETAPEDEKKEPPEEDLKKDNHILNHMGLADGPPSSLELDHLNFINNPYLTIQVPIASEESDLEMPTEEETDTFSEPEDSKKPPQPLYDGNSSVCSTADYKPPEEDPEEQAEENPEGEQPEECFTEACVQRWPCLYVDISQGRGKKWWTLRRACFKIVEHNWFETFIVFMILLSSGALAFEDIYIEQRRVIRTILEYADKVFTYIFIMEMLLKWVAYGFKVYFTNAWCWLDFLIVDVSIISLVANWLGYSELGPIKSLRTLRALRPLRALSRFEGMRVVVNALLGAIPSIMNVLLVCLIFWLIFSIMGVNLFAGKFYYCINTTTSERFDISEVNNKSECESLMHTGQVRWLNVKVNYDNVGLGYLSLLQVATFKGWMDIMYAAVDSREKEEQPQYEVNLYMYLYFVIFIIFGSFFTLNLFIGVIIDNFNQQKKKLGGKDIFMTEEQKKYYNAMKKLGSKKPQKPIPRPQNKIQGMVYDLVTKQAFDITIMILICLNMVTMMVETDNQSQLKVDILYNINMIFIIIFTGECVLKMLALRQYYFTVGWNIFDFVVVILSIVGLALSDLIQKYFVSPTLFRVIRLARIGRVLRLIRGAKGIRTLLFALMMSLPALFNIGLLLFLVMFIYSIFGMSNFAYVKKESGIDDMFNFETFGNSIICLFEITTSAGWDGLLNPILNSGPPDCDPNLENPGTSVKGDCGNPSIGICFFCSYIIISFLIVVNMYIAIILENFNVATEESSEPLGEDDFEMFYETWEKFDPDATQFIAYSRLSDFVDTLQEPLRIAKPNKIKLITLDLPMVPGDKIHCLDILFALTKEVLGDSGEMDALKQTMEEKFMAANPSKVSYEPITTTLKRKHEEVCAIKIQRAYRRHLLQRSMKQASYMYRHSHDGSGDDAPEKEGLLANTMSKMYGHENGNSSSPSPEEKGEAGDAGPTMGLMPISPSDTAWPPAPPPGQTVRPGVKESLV
Chain of hNav1.7 (Q15858 whole entry): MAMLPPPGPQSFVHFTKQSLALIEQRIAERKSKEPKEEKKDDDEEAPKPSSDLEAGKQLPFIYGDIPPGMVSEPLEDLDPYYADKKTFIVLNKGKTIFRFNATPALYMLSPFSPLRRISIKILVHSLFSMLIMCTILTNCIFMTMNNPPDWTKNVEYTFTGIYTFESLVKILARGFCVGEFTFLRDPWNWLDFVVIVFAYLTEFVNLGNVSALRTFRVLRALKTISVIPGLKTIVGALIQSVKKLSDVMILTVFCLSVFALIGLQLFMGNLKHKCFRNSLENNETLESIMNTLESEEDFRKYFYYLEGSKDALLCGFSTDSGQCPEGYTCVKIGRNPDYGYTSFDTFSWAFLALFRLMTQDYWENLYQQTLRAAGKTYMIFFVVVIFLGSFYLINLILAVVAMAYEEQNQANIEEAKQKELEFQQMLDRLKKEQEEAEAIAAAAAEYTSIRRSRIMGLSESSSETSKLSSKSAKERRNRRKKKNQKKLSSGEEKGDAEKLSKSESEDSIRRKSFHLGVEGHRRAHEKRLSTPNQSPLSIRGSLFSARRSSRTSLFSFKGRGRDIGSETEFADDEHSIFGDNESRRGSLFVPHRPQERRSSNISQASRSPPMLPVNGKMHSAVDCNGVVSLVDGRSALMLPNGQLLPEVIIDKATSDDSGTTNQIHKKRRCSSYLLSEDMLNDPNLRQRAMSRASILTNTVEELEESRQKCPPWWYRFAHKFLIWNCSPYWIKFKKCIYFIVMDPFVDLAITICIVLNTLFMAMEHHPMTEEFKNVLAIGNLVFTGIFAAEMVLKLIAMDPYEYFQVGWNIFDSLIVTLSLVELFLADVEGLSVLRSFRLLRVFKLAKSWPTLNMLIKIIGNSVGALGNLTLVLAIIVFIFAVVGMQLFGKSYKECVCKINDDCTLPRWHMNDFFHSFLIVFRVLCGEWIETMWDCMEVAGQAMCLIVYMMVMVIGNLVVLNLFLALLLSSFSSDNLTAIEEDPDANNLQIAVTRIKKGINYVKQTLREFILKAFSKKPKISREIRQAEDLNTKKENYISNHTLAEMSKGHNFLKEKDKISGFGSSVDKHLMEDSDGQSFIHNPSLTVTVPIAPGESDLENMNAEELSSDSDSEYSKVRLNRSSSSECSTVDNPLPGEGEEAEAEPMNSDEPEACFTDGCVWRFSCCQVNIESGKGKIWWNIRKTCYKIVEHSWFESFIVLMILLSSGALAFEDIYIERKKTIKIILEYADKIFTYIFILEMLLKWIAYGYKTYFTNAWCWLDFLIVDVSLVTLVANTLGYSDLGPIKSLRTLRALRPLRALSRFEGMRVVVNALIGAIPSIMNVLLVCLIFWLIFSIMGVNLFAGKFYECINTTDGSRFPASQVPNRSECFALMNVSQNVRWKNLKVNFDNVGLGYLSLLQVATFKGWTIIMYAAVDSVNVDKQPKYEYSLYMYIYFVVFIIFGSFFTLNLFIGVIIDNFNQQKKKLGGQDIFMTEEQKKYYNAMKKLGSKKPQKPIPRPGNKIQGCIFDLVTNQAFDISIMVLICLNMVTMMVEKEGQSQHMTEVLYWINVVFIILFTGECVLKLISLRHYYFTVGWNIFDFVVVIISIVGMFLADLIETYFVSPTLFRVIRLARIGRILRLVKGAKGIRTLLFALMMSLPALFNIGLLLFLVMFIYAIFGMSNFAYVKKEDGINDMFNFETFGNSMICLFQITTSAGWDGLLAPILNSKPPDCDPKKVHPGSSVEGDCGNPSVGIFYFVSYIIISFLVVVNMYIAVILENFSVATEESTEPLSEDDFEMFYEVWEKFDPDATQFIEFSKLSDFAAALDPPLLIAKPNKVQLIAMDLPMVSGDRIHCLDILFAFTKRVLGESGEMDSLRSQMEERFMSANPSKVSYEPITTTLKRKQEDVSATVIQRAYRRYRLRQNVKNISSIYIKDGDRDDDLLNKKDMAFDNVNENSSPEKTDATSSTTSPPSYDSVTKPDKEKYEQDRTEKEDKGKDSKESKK

By IC50 is commonly meant the concentration needed to halve the response being measured. On to `CCCC[C@@H]1NC(=O)[C@H](Cc2c[nH]c3ccccc23)NC(=O)[C@H](CCCCN)NC(=O)[C@H](CCC(N)=O)NC(=O)[C@@H](NC(=O)[C@@H](N)Cc2ccc(O)cc2)CSSC[C@@H]2NC(=O)[C@@H]3CSSC[C@@H](C(=O)N[C@@H](CCCNC(=N)N)C(=O)N[C@@H](CCCCN)C(=O)N[C@H](C(=O)N[C@H](C(N)=O)[C@@H](C)CC)[C@@H](C)CC)NC(=O)[C@H](Cc4c[nH]c5ccccc45)NC(=O)[C@H](Cc4cn(CCCOCCOCCOCCOCCOCCOCCOCCOCCOCCOCCN)nn4)NC(=O)[C@H](CCCCN)NC(=O)[C@H](CSSC[C@H](NC(=O)[C@H]([C@@H](C)O)NC(=O)[C@H](Cc4c[nH]c5ccccc45)NC1=O)C(=O)N[C@@H](CC(=O)O)C(=O)N[C@@H](CO)C(=O)N[C@@H](CCCCN)C(=O)N[C@@H](CCCNC(=N)N)C(=O)N[C@@H](C)C(=O)N3)NC(=O)[C@H](CCCNC(=N)N)NC(=O)[C@H](CC(C)C)NC(=O)CNC(=O)[C@H](CCC(=O)O)NC2=O` [compound 265], for which the IC50 in assay [1] (IonWorks Quattro, […]) was 4.8 µM; in assay [2] (Table 9), more than 7 µM; in assay [3] (Table 9), more than 7 µM; in assay [4] (Table 9), 5.6 µM.

With `CC[C@H](C)[C@H](NC(=O)[C@@H](NC(=O)[C@H](CCCCN)NC(=O)[C@H](CCCNC(=N)N)NC(=O)[C@@H]1CSSC[C@@H]2NC(=O)[C@H](C)NC(=O)[C@H](CCCNC(=N)N)NC(=O)[C@H](CCCCN)NC(=O)[C@H](CO)NC(=O)[C@H](CC(=O)O)NC(=O)[C@@H]3CSSC[C@H](NC(=O)[C@H](CCCCN)NC(=O)[C@H](CC(C)C)NC(=O)CNC(=O)[C@H](CCC(=O)O)NC(=O)[C@H](CSSC[C@H](NC(=O)[C@@H](N)Cc4ccc(O)cc4)C(=O)N[C@@H](CCC(N)=O)C(=O)N[C@@H](CCCCN)C(=O)N[C@@H](Cc4c[nH]c5ccccc45)C(=O)N[C@@H](CCSC)C(=O)N[C@@H](Cc4c[nH]c5ccccc45)C(=O)N[C@@H]([C@@H](C)O)C(=O)N3)NC2=O)C(=O)N[C@@H](CCCCN)C(=O)N[C@@H](CC(C)C)C(=O)N[C@@H](Cc2c[nH]c3ccccc23)C(=O)N1)[C@@H](C)CC)C(N)=O` [compound 84], the IC50 in assay [1] was 0.02 µM; in assay [2] (Table 6) it was 3.4 µM; in assay [3] (Table 6) it was 0.26 µM; in assay [4] (Table 6), 0.06 µM. In assay [3] (Table 6), the Nav1.4/Nav1.7 came out at 13.

With `CCCC[C@@H]1NC(=O)[C@H](Cc2c[nH]c3ccccc23)NC(=O)[C@H](CCCCN)NC(=O)[C@H](CCC(N)=O)NC(=O)[C@@H](NC(=O)[C@@H](N)Cc2ccc(O)cc2)CSSC[C@@H]2NC(=O)[C@@H]3CSSC[C@@H](C(=O)N[C@@H](CCCNC(=N)N)C(=O)N[C@@H](CCCCN)C(=O)N[C@H](C(=O)N[C@H](C(N)=O)[C@@H](C)CC)[C@@H](C)CC)NC(=O)[C@H](Cc4c[nH]c5ccccc45)NC(=O)[C@H](CC(C)C)NC(=O)[C@H](Cc4cn(CCCOCCOCCOCCOCCOCCOCCOCCOCCOCCOCCN)nn4)NC(=O)[C@H](CSSC[C@H](NC(=O)[C@H]([C@@H](C)O)NC(=O)[C@H](Cc4c[nH]c5ccccc45)NC1=O)C(=O)N[C@@H](CC(=O)O)C(=O)N[C@@H](CO)C(=O)N[C@@H](CCCCN)C(=O)N[C@@H](CCCNC(=N)N)C(=O)N[C@@H](C)C(=O)N3)NC(=O)[C@H](CCCNC(=N)N)NC(=O)[C@H](CC(C)C)NC(=O)CNC(=O)[C@H](CCC(=O)O)NC2=O` [compound 264], the IC50 in assay [1] (IonWorks Quattro, […]) is more than 7 µM; in assay [2] (Table 9) it was more than 7 µM; in assay [3] (Table 9) it was more than 7 µM; in assay [4] (Table 9), more than 7 µM.

Turning to `CC[C@H](C)[C@H](NC(=O)[C@@H](NC(=O)[C@H](CCCCN)NC(=O)[C@H](CCCNC(=N)N)NC(=O)[C@@H]1CSSC[C@@H]2NC(=O)[C@H](C)NC(=O)[C@H](CCCNC(=N)N)NC(=O)[C@H](CCCCN)NC(=O)[C@H](CO)NC(=O)[C@H](CC(=O)O)NC(=O)[C@@H]3CSSC[C@H](NC(=O)[C@H](CCCNC(=N)N)NC(=O)[C@H](CC(C)C)NC(=O)CNC(=O)[C@H](CCC(=O)O)NC(=O)[C@H](CSSC[C@H](NC(=O)[C@@H](N)CCCNC(=N)N)C(=O)N[C@@H](CCC(N)=O)C(=O)N[C@@H](CCCCN)C(=O)N[C@@H](Cc4c[nH]c5ccccc45)C(=O)N[C@@H](CCSC)C(=O)N[C@@H](Cc4c[nH]c5ccccc45)C(=O)N[C@@H]([C@@H](C)O)C(=O)N3)NC2=O)C(=O)N[C@@H](CCCCN)C(=O)N[C@@H](CC(C)C)C(=O)N[C@@H](Cc2c[nH]c3ccccc23)C(=O)N1)[C@@H](C)CC)C(N)=O` [compound 90], the IC50 came to 0.005 µM in assay [1], 1.8 µM in assay [2] (Table 6), 0.12 µM in assay [3] (Table 6) and 0.04 µM in assay [4] (Table 6). In assay [3] (Table 6), the Nav1.4/Nav1.7 is recorded as 24.

`CC[C@H](C)[C@H](NC(=O)[C@H](C)NC(=O)[C@H](CCCCN)NC(=O)[C@H](CCCNC(=N)N)NC(=O)[C@@H]1CSSC[C@@H]2NC(=O)[C@H](C)NC(=O)[C@H](CCCNC(=N)N)NC(=O)[C@H](CCCCN)NC(=O)[C@H](CO)NC(=O)[C@H](CC(=O)O)NC(=O)[C@@H]3CSSC[C@H](NC(=O)[C@H](CCCNC(=N)N)NC(=O)[C@H](CC(C)C)NC(=O)CNC(=O)[C@H](CCC(=O)O)NC(=O)[C@H](CSSC[C@H](NC(=O)[C@@H](N)Cc4ccc(O)cc4)C(=O)N[C@@H](CCC(N)=O)C(=O)N[C@@H](CCCCN)C(=O)N[C@@H](Cc4c[nH]c5ccccc45)C(=O)N[C@@H](CCSC)C(=O)N[C@@H](Cc4c[nH]c5ccccc45)C(=O)N[C@@H]([C@@H](C)O)C(=O)N3)NC2=O)C(=O)N[C@@H](CCCCN)C(=O)N[C@@H](CC(C)C)C(=O)N[C@@H](Cc2c[nH]c3ccccc23)C(=O)N1)C(N)=O` [compound 23]: the IC50 was 0.03 µM in assay [1], more than 5 µM in assay [2] (Table 6), 0.29 µM in assay [3] (Table 6) and 0.25 µM in assay [4] (Table 6). Also, the Nav1.4/Nav1.7 in assay [3] (Table 6) came out at 10.

Take `CC[C@H](C)[C@H](NC(=O)[C@@H](NC(=O)[C@H](CCCCN)NC(=O)[C@H](CCCNC(=N)N)NC(=O)[C@@H]1CSSC[C@@H]2NC(=O)[C@H](C)NC(=O)[C@H](CCCNC(=N)N)NC(=O)[C@H](CCCCN)NC(=O)[C@H](CCCCN)NC(=O)[C@H](CC(=O)O)NC(=O)[C@@H]3CSSC[C@H](NC(=O)[C@H](CCCNC(=N)N)NC(=O)[C@H](CC(C)C)NC(=O)CNC(=O)[C@H](CCC(=O)O)NC(=O)[C@H](CSSC[C@H](NC(=O)[C@@H](N)Cc4ccc(O)cc4)C(=O)N[C@@H](CCC(N)=O)C(=O)N[C@@H](CCCCN)C(=O)N[C@@H](Cc4c[nH]c5ccccc45)C(=O)N[C@@H](CCSC)C(=O)N[C@@H](Cc4c[nH]c5ccccc45)C(=O)N[C@@H]([C@@H](C)O)C(=O)N3)NC2=O)C(=O)N[C@@H](CCCCN)C(=O)N[C@@H](CC(C)C)C(=O)N[C@@H](Cc2c[nH]c3ccccc23)C(=O)N1)[C@@H](C)CC)C(N)=O` [compound 78]: the IC50 in assay [1] worked out at 0.008 µM; in assay [2] (Table 6), 1.1 µM; in assay [3] (Table 6) it was 0.11 µM; in assay [4] (Table 6), 0.05 µM. Besides, the Nav1.4/Nav1.7 in assay [3] (Table 6) was determined as 13.

`CC[C@H](C)[C@H](NC(=O)[C@@H](NC(=O)[C@H](CCCCN)NC(=O)[C@H](CCCNC(=N)N)NC(=O)[C@@H]1CSSC[C@@H]2NC(=O)[C@H](C)NC(=O)[C@H](CCCNC(=N)N)NC(=O)[C@H](CCCCN)NC(=O)[C@H](CCCNC(=N)N)NC(=O)[C@H](CC(=O)O)NC(=O)[C@@H]3CSSC[C@H](NC(=O)[C@H](CCCNC(=N)N)NC(=O)[C@H](CC(C)C)NC(=O)CNC(=O)[C@H](CCC(=O)O)NC(=O)[C@H](CSSC[C@H](NC(=O)[C@@H](N)Cc4ccc(O)cc4)C(=O)N[C@@H](CCC(N)=O)C(=O)N[C@@H](CCCCN)C(=O)N[C@@H](Cc4c[nH]c5ccccc45)C(=O)N[C@@H](CCSC)C(=O)N[C@@H](Cc4c[nH]c5ccccc45)C(=O)N[C@@H]([C@@H](C)O)C(=O)N3)NC2=O)C(=O)N[C@@H](CCCCN)C(=O)N[C@@H](CC(C)C)C(=O)N[C@@H](Cc2c[nH]c3ccccc23)C(=O)N1)[C@@H](C)CC)C(N)=O` [compound 98]: the IC50 turned out to be 0.007 µM in assay [1], 0.86 µM in assay [2] (Table 6), 0.09 µM in assay [3] (Table 6) and 0.03 µM in assay [4] (Table 6). Further, in assay [3] (Table 6), the Nav1.4/Nav1.7 was 12.

`CC[C@H](C)[C@H](NC(=O)[C@H](CCCCN)NC(=O)[C@H](CCCNC(=N)N)NC(=O)[C@@H]1CSSC[C@@H]2NC(=O)[C@H](C)NC(=O)[C@H](CCCNC(=N)N)NC(=O)[C@H](CCCCN)NC(=O)[C@H](CO)NC(=O)[C@H](CC(=O)O)NC(=O)[C@@H]3CSSC[C@H](NC(=O)[C@H](CCCNC(=N)N)NC(=O)[C@H](CC(C)C)NC(=O)CNC(=O)[C@H](CCC(=O)O)NC(=O)[C@H](CSSC[C@H](NC(=O)[C@@H](N)Cc4ccc(O)cc4)C(=O)N[C@@H](CCC(N)=O)C(=O)N[C@@H](CCCCN)C(=O)N[C@@H](Cc4c[nH]c5ccccc45)C(=O)N[C@@H](CCSC)C(=O)N[C@@H](Cc4c[nH]c5ccccc45)C(=O)N[C@@H]([C@@H](C)O)C(=O)N3)NC2=O)C(=O)N[C@@H](CCCCN)C(=O)N[C@@H](CC(C)C)C(=O)N[C@@H](Cc2c[nH]c3ccccc23)C(=O)N1)C(=O)N[C@@H](CCCCN)C(N)=O` [compound 89]: the IC50 was 0.11 µM in assay [1], more than 5 µM in assay [2] (Table 6), 1.3 µM in assay [3] (Table 6) and 2.4 µM in assay [4] (Table 6). Also, the Nav1.4/Nav1.7 in assay [3] (Table 6) is listed as 11.
